Assay results published in EP4778922A1, “BICYCLIC COMPOUND, AND PREPARATION METHOD THEREFOR AND PHARMACEUTICAL USE THEREOF” (Shanghai Jeyou Pharmaceutical Co., Ltd., priority 2023, dated 2025).
Read-outs that look alike come from different tables or passages of the source.

Tests used:
[1] = tested on: 22RV1 cells; assay: Cell proliferation inhibition assay in 22RV1 cells (CellTiter-Glo, 7 days); type: cell-based, human; conditions: Homo sapiens
Procedure: • 1. The human prostate cancer cell lines 22RV1 and LNCaP were purchased from ATCC. […] The cell concentration was adjusted to an appropriate concentration (determined based on the results of cell density optimization experiments), and the cells were seeded into a 96-well plate. A 100 µL cell suspension was added, resulting in 3000 cells per well. […] On the second day, for 22Rv1 cells, test compounds at different concentrations were added, and the cells were incubated at 37°C in a 5% CO2 incubator for 7 days; for LNCaP cells, test compounds at different concentrations were added first, and after 1 hour of treatment, 0.2 nM DHT was added. The cells were then incubated at 37°C in a 5% CO2 incubator for 7 days. • 4. After the incubation period, a volume of CellTiter-Glo detection reagent equal to the volume of the culture medium was added to each well. The plate was shaken and mixed thoroughly for 5 minutes, then incubated at room temperature for 10 minutes. Readings were taken using a PerkinElmer EnVision microplate reader. • 5.
The IC50 curve was fitted and the IC50 value was calculated using the software GraphPad Prism 8 with the calculation formula XY-analysis/Nonlinear regression (curve fit)/Dose response-Inhibition/log (inhibitor) vs. response-Variable slope (four parameters).

[2] = Mouse pharmacokinetic test; type: in vivo, ICR mice; conditions: plasma; for Tmax: read-out: Tmax
Procedure: Formulation preparation: The dosing solutions were prepared on the day of administration.
Six healthy male naive ICR mice weighing 25-30 g were selected and divided into two groups (intravenous and oral groups), with three mice in each group, and administered a single dose. […] Feeding was resumed 4 h after administration. Timing was initiated following intravenous and oral administration. […] The collected whole blood was briefly vortexed twice for mixing, placed on wet ice, and centrifuged at 4°C and 8000 rpm for 5 min within 1 h. The supernatant plasma was collected and stored at -80°C until processing and analysis. Table 3: Pharmacokinetics in mice

Row | Compound | IC50 ([1]; 22Rv1, 168 h) | AUC(0-inf) ([2]; po, 30 mg/kg, PO-30mpk) | Cmax ([2]; po, 30 mg/kg, PO-30mpk) | half-life ([2]; po, 30 mg/kg, PO-30mpk) | Tmax ([2]; po, 30 mg/kg, PO-30mpk) | IC50 ([1]; 168 h) | further results
1 | CC(C)(c1ccc(-c2ccc(OC3CCN(c4ccnc(P(C)(C)=O)n4)CC3)nc2)cc1)c1cc(Cl)c(OCCCl)c(C#N)c1 [Compound 103] | 690 nM | 247 µg·h/mL | 18100 ng/mL | 7.5 h | 4 h |  | 
2 | CC(C)(c1ccc(-c2ccc(OCc3ccnc(P(C)(C)=O)n3)c(F)c2)cc1)c1cc(Cl)c(OCCCl)c(C#N)c1 [Compound 117] | 680 nM | 304 µg·h/mL | 15700 ng/mL | 12.1 h | 4 h |  | 
3 | CC(C)(c1ccc(-c2ccc(Oc3ccnc(P(C)(C)=O)n3)cc2)cc1)c1cc(Cl)c(OCCCl)c(C#N)c1 [Compound 26] | 1420 nM | 368 µg·h/mL | 29500 ng/mL | 7.81 h | 3.33 h |  | 
4 | CC(C)(c1ccc(-c2ccc(OCc3ccnc(N=S4(=O)CCCC4)n3)cn2)cc1)c1cc(Cl)c(OCCCl)c(C#N)c1 [Compound 16] | 940 nM | 211 µg·h/mL | 36100 ng/mL | 1.46 h | 1.67 h |  | 
5 | CC(C)(c1ccc(-c2ccc(OCc3ccnc(N4CC5(COC5)C4)n3)cn2)cc1)c1cc(Cl)c(OCCCl)c(C#N)c1 [Compound 82] | 860 nM | 171 µg·h/mL | 24900 ng/mL | 8.3 h | 2.7 h |  | 
6 | CC(C)(c1ccc(-c2ccc(OCc3ccnc(N4CC(P(C)(C)=O)C4)n3)cc2)cc1)c1cc(Cl)c(OCCCl)c(C#N)c1 [Compound 135] | 230 nM | 207 µg·h/mL | 13600 ng/mL | 5.6 h | 6 h |  | 
7 | CC(C)(c1ccc(-c2ccc(COc3ccnc(P(C)(C)=O)n3)cc2)cc1)c1cc(Cl)c(OCCCl)c(C#N)c1 [Compound 253] | 1060 nM | 298 µg·h/mL | 20800 ng/mL | 7.3 h | 5 h |  | 
8 | CNS(=O)(=O)C1CN(c2nccc(COc3ccc(-c4ccc(C(C)(C)c5cc(Cl)c(OCCCl)c(C#N)c5)cc4)nc3)n2)C1 [Compound 258] | 630 nM | 323 µg·h/mL | 39200 ng/mL | 5.2 h | 3 h |  | 
9 | CC(C)(c1ccc(-c2ccc(OCc3ccnc(P(C)(C)=O)n3)nc2)cc1)c1cc(Cl)c(OCCCl)c(C#N)c1 [Compound 17] | 960 nM | 420 µg·h/mL | 35700 ng/mL | 5.82 h | 4.67 h |  | C0 ([2]; 0.5 mg/kg, IV-0.5mpk): 982 ng/mL; clearance ([2]; 0.5 mg/kg, IV-0.5mpk): 1.1 mL/min/kg; bioavailability ([2]; 30 mg/kg, PO-30mpk vs IV-0.5mpk): 92.2%; AUC(0-inf) ([2]; iv, 0.5 mg/kg, IV-0.5mpk): 7.59 µg·h/mL; half-life ([2]; iv, 0.5 mg/kg, IV-0.5mpk): 5.6 h
10 | CC(C)(c1ccc(-c2ccc(OCc3ccnc(N4CC(S(N)(=O)=O)C4)n3)cn2)cc1)c1cc(Cl)c(OCCCl)c(C#N)c1 [Compound 180] | 800 nM | 309 µg·h/mL | 34600 ng/mL | 5.17 h | 3 h |  | 
11 | CC(C)(c1ccc(-c2ccc(OCc3ccnc(N4CC5(CC(S(C)(=N)=O)C5)C4)n3)cc2)cc1)c1cc(Cl)c(OCCCl)c(C#N)c1 (stereo not drawn) [Compound 245] | 990 nM | 181 µg·h/mL | 11000 ng/mL | 7.3 h | 5 h |  | 
12 | COc1c(Cl)cc(C(C)(C)c2ccc(-c3ccc(OCc4ccnc(P(C)(C)=O)n4)cc3)cc2)cc1C#N [Compound 237] | 860 nM | 213 µg·h/mL | 16200 ng/mL | 4.2 h | 3 h |  | 
13 | CCCOc1c(Cl)cc(C(C)(C)c2ccc(-c3ccc(OCc4ccnc(P(C)(C)=O)n4)cc3)cc2)cc1C#N [Compound 191] |  |  |  |  |  | 410 nM | AUC(0-inf) ([2]; 30 mg/kg, PO-30mpk): 481 µg·h/mL; Cmax ([2]; 30 mg/kg, PO-30mpk): 25000 ng/mL; half-life ([2]; 30 mg/kg, PO-30mpk): 13.2 h; Tmax ([2]; 30 mg/kg, PO-30mpk): 4 h
14 | CC(C)(c1ccc(-c2ccc(OC3CCN(c4ccnc(N5CC(S(C)(=O)=O)C5)n4)CC3)nc2)cc1)c1cc(Cl)c(OCCCl)c(C#N)c1 [Compound 148] |  |  |  |  |  | 770 nM | 
15 | CC(C)(c1ccc(-c2ccc(OCc3ccnc(N4CC5(CC(=O)C5)C4)n3)cc2)cc1)c1cc(Cl)c(OCCCl)c(C#N)c1 [Compound 122] |  |  |  |  |  | 1280 nM | 
16 | CC(C)(c1ccc(-c2ccc(OCC3CC(N4CC5(C4)CS(=O)(=O)C5)C3)cc2)cc1)c1cc(Cl)c(OCCCl)c(C#N)c1 (stereo not drawn) [Compound 230] |  |  |  |  |  | 520 nM | 
17 | CC(C)(c1ccc(-c2ccc(OCc3ccnc(N=S4(=O)CCN(C5COC5)CC4)n3)cc2)cc1)c1cc(Cl)c(OCCCl)c(C#N)c1 [Compound 223] |  |  |  |  |  | 510 nM | 
18 | CC(C)(c1ccc(-c2ccc(OCc3ccnc(N=S4(=O)CCN(CCC(F)(F)F)CC4)n3)cc2)cc1)c1cc(Cl)c(OCCCl)c(C#N)c1 [Compound 241] |  |  |  |  |  | 790 nM | 

Row | Compound | IC50 ([1]; 22Rv1, 168 h) | AUC(0-inf) ([2]; po, 30 mg/kg, PO-30mpk) | Cmax ([2]; po, 30 mg/kg, PO-30mpk) | half-life ([2]; po, 30 mg/kg, PO-30mpk) | Tmax ([2]; po, 30 mg/kg, PO-30mpk) | IC50 ([1]; 168 h) | further results
19 | CC(C)(c1ccc(-c2cnc(OCc3ccnc(N4CC(S(=N)(=O)C5CC5)C4)n3)cn2)cc1)c1cc(Cl)c(OCCCl)c(C#N)c1 (racemic) [Compound 350] | 460 nM |  |  |  |  |  | 
20 | CC(C)(c1ccc(-c2ccc(OCc3ccnc(N4CC5(C4)CS(=O)(=O)C5)n3)cc2)cc1)c1cc(Cl)c(OCCCl)c(C#N)c1 [Compound 24] | 1030 nM |  |  |  |  |  | 
21 | CC(C)(c1ccc(-c2ccc(OCC3CCOCC3)cn2)cc1)c1cc(Cl)c(OCCCl)c(C#N)c1 [Compound 169] |  |  |  |  |  | 360 nM | 
22 | CC(C)(c1ccc(-c2ccc(OCc3ccnc(N=S4(=O)CCOCC4)n3)nc2)cc1)c1cc(Cl)c(OCCCl)c(C#N)c1 [Compound 19] |  |  |  |  |  | 860 nM | 
23 | CC(C)(c1ccc(-c2cc(F)c(OCc3ccnc(N=S4(=O)CCOCC4)n3)cn2)cc1)c1cc(Cl)c(OCCCl)c(C#N)c1 [Compound 153] |  |  |  |  |  | 780 nM | 
24 | CC(C)(c1ccc(-c2ccc(OCc3ccnc(N=S4(=O)CCN(CC(F)(F)F)CC4)n3)nc2)cc1)c1cc(Cl)c(OCCCl)c(C#N)c1 [Compound 261] |  |  |  |  |  | 830 nM | 
25 | CC(C)(c1ccc(-c2ccc(Oc3ccc(-c4cnc(P(C)(C)=O)nc4)cc3)cc2)cc1)c1cc(Cl)c(OCCCl)c(C#N)c1 [Compound 270] |  |  |  |  |  | 890 nM | 
26 | CC(C)(c1ccc(-c2ccc(C#Cc3ccnc(N=S4(=O)CCCC4)n3)cc2)cc1)c1cc(Cl)c(OCCCl)c(C#N)c1 [Compound 21] |  |  |  |  |  | 340 nM | 
27 | Cc1cc(OCc2ccc(-c3cnc(P(C)(C)=O)nc3)cc2)ccc1-c1ccc(C(C)(C)c2cc(Cl)c(OCCCl)c(C#N)c2)cc1 [Compound 304] |  |  |  |  |  | 810 nM | 
28 | CC(C)(c1ccc(-c2ccc(OCc3ccnc(N4CC5(CCS5(=N)=O)C4)n3)cc2)cc1)c1cc(Cl)c(OCCCl)c(C#N)c1 (stereo not drawn) [Compound 329] |  |  |  |  |  | 390 nM | 
29 | CC(C)(c1ccc(-c2ccc(OCc3ccnc(P(C)(C)=O)n3)cc2)cc1)c1cc(F)c2c(cnn2CCCl)c1 [Compound 280] |  |  |  |  |  | 1270 nM | 
30 | CC(C)(c1ccc(-c2ccc(OC3CCN(c4ccnc(N5CC6(COC6)C5)n4)CC3)cc2)cc1)c1cc(Cl)c(OCCCl)c(C#N)c1 [Compound 77] |  |  |  |  |  | 1470 nM | 
31 | CC(C)(c1ccc(-c2cccc(OCc3ccnc(S(C)(=O)=O)n3)c2)cc1)c1cc(Cl)c(OCCCl)c(C#N)c1 [Compound 4] |  |  |  |  |  | 1380 nM | 
32 | CC(C)(c1ccc(-c2ccc(OCc3ccnc(N=S4(=O)CCN(CC(F)(F)F)CC4)n3)cc2)cc1)c1cc(Cl)c(OCCCl)c(C#N)c1 [Compound 217] |  |  |  |  |  | 430 nM | 
33 | CC(C)(c1ccc(-c2ccc(OCC3CC(CN4CCS(=O)(=O)CC4)C3)cc2)cc1)c1cc(Cl)c(OCCCl)c(C#N)c1 (stereo not drawn) [Compound 296] |  |  |  |  |  | 480 nM | 
34 | C[S+]([O-])c1nccc(COc2ccc(-c3ccc(C(C)(C)c4cc(Cl)c(OCCCl)c(C#N)c4)cc3)cc2)n1 (stereo not drawn) [Compound 81] |  |  |  |  |  | 860 nM | 
35 | CC(C)(c1ccc(-c2ccc(OC3CCN(c4ccnc(N5CC6(C5)CS(=O)(=O)C6)n4)CC3)cc2)cc1)c1cc(Cl)c(OCCCl)c(C#N)c1 [Compound 78] |  |  |  |  |  | 710 nM | 
36 | CC(C)(c1ccc(-c2ccc(OCCN3CCS(=N)(=O)CC3)cc2)cc1)c1cc(Cl)c(OCCCl)c(C#N)c1 [Compound 324] |  |  |  |  |  | 300 nM | 
